Consider 2 molecules from ChEMBL document CHEMBL5728860, “[1,2,4]Triazolo[4,3-A]pyrazin-6(5H)-one derivatives” (2021).

Experiment [1] has as its target Rod cGMP-specific 3',5'-cyclic phosphodiesterase alpha/beta (Homo sapiens, UniProt P16499+P35913). Kind of experiment: PDE Enzyme Assays Using [3H]cGMP as Substrate: The following phosphodiesterase activities are measured using [3H]cGMP as reaction substrate: human PDE6A/6B. The catalytic active form of human PDE6 is a dimer composed of a α (human PDE6A) and β subunits (human PDE6B). The dimer of human PDE6A/6B is produced by the coexpression and purification strategy, using two purification steps, i.e., NiNTA and anti-FLAG Sepharose chromatography. The assay buffer is prepared to give a final concentration in the assay of 50 mM Tris-HCl, 8.3 mM MgCl2, 1.7 mM EDTA and 0.1% Bovine serum albumin at pH 7.5. The final enzyme concentration is 5 nM. The reactions are started by addition of the substrate, [3H]cGMP, to give a final concentration of 80 nM. The class given is protein-complex assay.

Experiment [2] concerns the target cGMP-inhibited 3',5'-cyclic phosphodiesterase 3A (Homo sapiens, UniProt Q14432). As to the kind of experiment: PDE Enzyme Assays Using [3H]cAMP as Substrate: The following phosphodiesterase activities are measured using [3H]cAMP as reaction substrate: human PDE3A (catalytic domain) and human PDE4D. Both enzymes are cloned and purified following standard procedures. The assay buffer is prepared to give a final concentration in the assay of 50 mM Tris-HCl, 8.3 mM MgCl2, 1.7 mM ethylenediaminetetraacetic acid (EDTA) and 0.1% Bovine serum albumin at pH 7.5. Final enzyme concentrations are 0.008 and 0.021 nM for PDE3A and PDE4D, respectively. Reactions are started by addition of the substrate, [3H]cAMP, to give a final concentration of 47 nM.

Experiment [3] concerns the target Dual specificity calcium/calmodulin-dependent 3',5'-cyclic nucleotide phosphodiesterase 1A (Homo sapiens, UniProt P54750). Kind of experiment: Ca2+-Calmodulin Dependent PDE Enzyme Assays: PDE1B, PDE1A, and PDE1C are cloned and purified following standard protein generation procedures. The assay buffer is prepared to give a final concentration in the assay of 50 mM Tris-HCl, 50 mM MgCl2, 4 mM CaCl2, 0.1% Bovine serum albumin and 6 U/ml Calmodulin in water, at pH 7.5. The final enzyme concentration is 0.25, 0.074 and 0.0012 nM, for PDE1A, PDE1B and PDE1C respectively. The reactions are started by addition of the substrate, [3H]cAMP, to give a final concentration of 47 nM.

Dual specificity calcium/calmodulin-dependent 3',5'-cyclic nucleotide phosphodiesterase 1A, sequence (P54750 whole entry): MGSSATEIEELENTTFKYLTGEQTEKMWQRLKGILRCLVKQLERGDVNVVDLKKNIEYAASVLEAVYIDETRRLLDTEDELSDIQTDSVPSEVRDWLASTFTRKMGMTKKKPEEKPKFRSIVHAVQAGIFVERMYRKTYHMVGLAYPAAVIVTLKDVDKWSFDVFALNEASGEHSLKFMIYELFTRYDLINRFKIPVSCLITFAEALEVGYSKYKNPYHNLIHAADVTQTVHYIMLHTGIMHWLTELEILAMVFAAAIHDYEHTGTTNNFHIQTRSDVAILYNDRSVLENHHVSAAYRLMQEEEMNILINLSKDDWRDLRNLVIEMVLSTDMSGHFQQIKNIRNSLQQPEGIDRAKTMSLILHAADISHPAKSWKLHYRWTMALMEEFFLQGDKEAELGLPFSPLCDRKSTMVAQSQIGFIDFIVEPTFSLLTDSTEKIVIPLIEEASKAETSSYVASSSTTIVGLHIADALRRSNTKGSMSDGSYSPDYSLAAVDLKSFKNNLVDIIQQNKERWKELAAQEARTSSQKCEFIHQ
cGMP-inhibited 3',5'-cyclic phosphodiesterase 3A, sequence (Q14432 whole entry, the tested form may be a part): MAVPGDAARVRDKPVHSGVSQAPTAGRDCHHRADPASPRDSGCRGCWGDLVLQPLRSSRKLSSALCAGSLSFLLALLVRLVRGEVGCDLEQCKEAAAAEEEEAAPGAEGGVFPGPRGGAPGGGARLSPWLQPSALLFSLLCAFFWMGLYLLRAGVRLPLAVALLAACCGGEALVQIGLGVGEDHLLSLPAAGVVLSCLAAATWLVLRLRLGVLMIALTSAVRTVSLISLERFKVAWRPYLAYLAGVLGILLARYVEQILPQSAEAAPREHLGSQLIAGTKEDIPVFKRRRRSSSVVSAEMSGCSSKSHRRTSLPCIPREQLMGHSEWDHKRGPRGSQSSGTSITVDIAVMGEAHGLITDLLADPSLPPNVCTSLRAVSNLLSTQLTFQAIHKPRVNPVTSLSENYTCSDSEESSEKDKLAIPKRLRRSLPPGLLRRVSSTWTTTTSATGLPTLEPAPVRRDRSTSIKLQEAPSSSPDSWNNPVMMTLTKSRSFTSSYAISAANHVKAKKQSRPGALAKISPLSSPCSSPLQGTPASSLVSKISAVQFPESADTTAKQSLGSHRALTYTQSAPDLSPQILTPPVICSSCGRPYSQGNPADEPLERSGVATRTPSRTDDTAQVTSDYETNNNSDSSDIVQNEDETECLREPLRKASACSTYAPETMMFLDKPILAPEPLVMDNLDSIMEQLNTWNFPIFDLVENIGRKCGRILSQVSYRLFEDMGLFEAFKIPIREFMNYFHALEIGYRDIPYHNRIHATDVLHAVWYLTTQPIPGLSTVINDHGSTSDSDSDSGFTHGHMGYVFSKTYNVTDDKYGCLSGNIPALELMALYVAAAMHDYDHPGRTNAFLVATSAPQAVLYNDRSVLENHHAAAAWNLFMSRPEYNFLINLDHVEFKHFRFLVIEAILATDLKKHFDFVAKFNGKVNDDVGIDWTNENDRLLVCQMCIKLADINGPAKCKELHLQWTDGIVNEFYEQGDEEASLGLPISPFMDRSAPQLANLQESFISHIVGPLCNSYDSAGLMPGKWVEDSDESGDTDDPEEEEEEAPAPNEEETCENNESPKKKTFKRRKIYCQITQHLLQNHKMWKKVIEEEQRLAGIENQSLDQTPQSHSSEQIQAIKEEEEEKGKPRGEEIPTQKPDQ
Rod cGMP-specific 3',5'-cyclic phosphodiesterase alpha/beta, sequence (P35913 whole entry): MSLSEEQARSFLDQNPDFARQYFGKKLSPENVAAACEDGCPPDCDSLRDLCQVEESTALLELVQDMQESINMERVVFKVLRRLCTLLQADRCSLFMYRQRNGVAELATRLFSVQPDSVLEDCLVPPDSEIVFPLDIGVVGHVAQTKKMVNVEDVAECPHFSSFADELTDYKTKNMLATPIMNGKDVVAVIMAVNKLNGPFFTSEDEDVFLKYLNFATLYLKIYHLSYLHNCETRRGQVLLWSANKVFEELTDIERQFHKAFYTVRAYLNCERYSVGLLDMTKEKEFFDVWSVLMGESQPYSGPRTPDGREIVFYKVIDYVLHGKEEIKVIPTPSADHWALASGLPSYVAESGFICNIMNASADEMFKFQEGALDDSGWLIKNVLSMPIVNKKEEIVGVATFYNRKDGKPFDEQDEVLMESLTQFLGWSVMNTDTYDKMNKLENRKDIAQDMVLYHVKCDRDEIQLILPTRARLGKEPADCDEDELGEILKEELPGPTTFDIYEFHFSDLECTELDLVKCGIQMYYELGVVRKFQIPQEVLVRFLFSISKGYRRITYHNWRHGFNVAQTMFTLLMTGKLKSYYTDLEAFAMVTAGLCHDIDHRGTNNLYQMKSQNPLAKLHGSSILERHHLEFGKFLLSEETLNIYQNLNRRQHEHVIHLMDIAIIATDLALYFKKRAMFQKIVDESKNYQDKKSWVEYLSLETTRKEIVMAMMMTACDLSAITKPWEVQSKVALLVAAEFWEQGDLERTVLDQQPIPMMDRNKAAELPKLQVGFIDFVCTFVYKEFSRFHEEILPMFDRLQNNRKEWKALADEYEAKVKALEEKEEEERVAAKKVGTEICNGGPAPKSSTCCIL
Rod cGMP-specific 3',5'-cyclic phosphodiesterase alpha/beta, sequence (P16499 whole entry): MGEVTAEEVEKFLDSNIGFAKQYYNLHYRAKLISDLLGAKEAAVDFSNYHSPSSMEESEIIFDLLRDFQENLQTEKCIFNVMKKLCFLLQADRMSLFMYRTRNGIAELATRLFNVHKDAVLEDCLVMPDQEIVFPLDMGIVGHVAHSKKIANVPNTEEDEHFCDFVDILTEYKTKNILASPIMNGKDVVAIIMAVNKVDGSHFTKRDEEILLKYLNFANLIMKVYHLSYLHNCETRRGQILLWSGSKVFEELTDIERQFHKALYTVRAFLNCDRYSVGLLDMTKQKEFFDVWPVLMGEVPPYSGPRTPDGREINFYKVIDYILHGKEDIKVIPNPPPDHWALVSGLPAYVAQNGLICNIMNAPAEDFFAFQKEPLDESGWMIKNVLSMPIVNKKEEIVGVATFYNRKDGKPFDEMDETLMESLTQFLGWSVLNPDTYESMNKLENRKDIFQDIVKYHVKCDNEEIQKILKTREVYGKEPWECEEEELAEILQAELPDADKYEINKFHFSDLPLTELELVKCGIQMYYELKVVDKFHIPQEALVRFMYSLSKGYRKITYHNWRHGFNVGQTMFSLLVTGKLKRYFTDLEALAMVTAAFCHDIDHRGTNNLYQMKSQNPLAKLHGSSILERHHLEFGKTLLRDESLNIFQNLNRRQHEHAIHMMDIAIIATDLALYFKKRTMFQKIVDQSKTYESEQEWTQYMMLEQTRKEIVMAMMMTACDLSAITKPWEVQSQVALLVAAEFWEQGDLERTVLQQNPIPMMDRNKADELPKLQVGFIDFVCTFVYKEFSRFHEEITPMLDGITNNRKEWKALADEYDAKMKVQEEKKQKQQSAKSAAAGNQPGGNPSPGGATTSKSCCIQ

The term IC50 denotes the concentration at which inhibition is half-maximal. Turning to `CCCCn1c(=O)c2nnc(C3(C4CC4)CC3)n2c2ncc(CO)cc21`, the IC50 in experiment [1] is 3850 nM; in experiment [2], greater than 100000 nM; in experiment [3], 0.996 nM.
For `CCCCn1c(=O)c2nnc(C3(C4CC4)CC3)n2c2ncc(CC)cc21`, in that order: 982 nM, greater than 100000 nM and 0.214 nM.
